Consider 24 compounds from patent US20150313927A1, “AN EDIBLE COMPOSITION COMPRISING RESVERATROL AND FLAVONOID MONOGLUCOSIDE” (Conopco, Inc., d/b/a UNILEVER, priority 2012, published 2015).

Each structure is given as a SMILES string. Where “and” joins values, the source holds several entries; their conditions need not be identical. Identical values can stand only once.

The subject of series [1] is SGLT1. In words: Glucose transport inhibitor cell screening assay, 5 mM D-glucose for 15 minutes. Particulars: for SGLT1 inhibitory activity (in words): Caco-2 cell model; for SGLT1 inhibitory activity (in words) / % Glucose Transport inhibition 5 mM: 5 mM D-glucose; for % Glucose Transport inhibition 5 mM: 15 minutes, actives at 300 uM, differentiated Caco-2 monolayer; for Class (assigned class of transporter inhibited): based on inhibition at 5 mM and 25 mM D-glucose.

In series [2] the target is T1, GLUT2 (Homo sapiens, UniProt P11168).
T1 sequence (P11168 1-524): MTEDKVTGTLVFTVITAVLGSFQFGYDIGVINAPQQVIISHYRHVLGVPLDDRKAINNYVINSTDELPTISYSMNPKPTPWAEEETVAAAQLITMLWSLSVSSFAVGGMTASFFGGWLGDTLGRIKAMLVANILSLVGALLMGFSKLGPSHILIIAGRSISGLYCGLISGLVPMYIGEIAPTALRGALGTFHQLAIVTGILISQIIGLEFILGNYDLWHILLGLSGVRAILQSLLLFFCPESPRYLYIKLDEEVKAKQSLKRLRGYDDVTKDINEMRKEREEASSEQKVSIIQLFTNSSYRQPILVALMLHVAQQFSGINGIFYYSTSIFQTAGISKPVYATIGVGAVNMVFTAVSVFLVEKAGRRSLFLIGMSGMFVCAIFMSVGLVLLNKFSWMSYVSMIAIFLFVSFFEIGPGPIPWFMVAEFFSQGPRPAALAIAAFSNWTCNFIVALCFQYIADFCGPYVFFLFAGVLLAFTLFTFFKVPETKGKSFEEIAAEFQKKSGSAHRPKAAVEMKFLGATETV
In words: Glucose transport inhibitor cell screening assay, 25 mM D-glucose for 30 minutes. Particulars: for GLUT2 inhibition (in words): Caco-2 cell model; for GLUT2 inhibition (in words) / % Glucose Transport inhibition 25 mM: 25 mM D-glucose; for inhibition at 25000 µM: Caco-2, read-out: % Glucose Transport inhibition 25 mM; for % Glucose Transport inhibition 25 mM: 30 minutes, actives at 150 uM, differentiated Caco-2 monolayer. For orientation: Caco-2 monolayers are a common model of the intestinal barrier.

In series [3] the target is T2, Human Lactase Phloridzin Hydrolase (hLPH) (Homo sapiens, UniProt P09848).
T2 construct: at confluence for 21 days prior to extraction with a Novagen ProteoExtract™ trans-membrane Protein Extraction kit; endogenous in cells; host or cells: Caco-2 cells (ATCC), 21 days at confluence; membrane protein extract desalted over G-25 Sephadex
In words: hLPH enzyme assay (glucoside hydrolysis by LPH extract). It is filed as in vitro ADME. Particulars: for Resistance to hydrolysis - % Q4G: resistance to LPH hydrolysis relative to quercetin-4-glucoside (Q4G); for μM substrate hydrolysed/hr: glucoside 1.0 mM, 10% LPH extract (Caco2), 1 hour, 37° C., pH 6.0. The method, then:
Extracts were stored at −80° C. in 50 ul aliquots. Prior to use extracts were semi-purified, removing low molecular weight interfering components by passing through a small G-25 Sephadex 50-100 μl spin-column (Roche or ThermoFisher Scientific). 10 μl of semi-purified LPH extract was added to 90 μl of glucoside (1.0 mM final concentration) in 0.1 M maleate (Sigma) buffer, pH 6.0 and incubated for 60 minutes at 37° C. The reaction was terminated by addition of 200 μl 2M Tris (Sigma), pH 8.0. […] This allowed a full recovery of glucose which was measured using the Amplex® Red Glucose/Glucose Oxidase Assay. […] Fluorescence was read on a SpectraMax Gemini EM SN plate reader (Molecular Devices) (excitation. 530 nm and emission at 590 nm).

Series [4] deals with differentiated Caco-2 monolayers. In words: Glucose transport cell model, total cumulative glucose transport (synergy). It is filed as cell-based, Human. The following applies: active only in 25 mM D-glucose for remaining 45 minutes (NC Pz 300 μM, NC R 75 μM).

T2 sequence (P09848 869-1927): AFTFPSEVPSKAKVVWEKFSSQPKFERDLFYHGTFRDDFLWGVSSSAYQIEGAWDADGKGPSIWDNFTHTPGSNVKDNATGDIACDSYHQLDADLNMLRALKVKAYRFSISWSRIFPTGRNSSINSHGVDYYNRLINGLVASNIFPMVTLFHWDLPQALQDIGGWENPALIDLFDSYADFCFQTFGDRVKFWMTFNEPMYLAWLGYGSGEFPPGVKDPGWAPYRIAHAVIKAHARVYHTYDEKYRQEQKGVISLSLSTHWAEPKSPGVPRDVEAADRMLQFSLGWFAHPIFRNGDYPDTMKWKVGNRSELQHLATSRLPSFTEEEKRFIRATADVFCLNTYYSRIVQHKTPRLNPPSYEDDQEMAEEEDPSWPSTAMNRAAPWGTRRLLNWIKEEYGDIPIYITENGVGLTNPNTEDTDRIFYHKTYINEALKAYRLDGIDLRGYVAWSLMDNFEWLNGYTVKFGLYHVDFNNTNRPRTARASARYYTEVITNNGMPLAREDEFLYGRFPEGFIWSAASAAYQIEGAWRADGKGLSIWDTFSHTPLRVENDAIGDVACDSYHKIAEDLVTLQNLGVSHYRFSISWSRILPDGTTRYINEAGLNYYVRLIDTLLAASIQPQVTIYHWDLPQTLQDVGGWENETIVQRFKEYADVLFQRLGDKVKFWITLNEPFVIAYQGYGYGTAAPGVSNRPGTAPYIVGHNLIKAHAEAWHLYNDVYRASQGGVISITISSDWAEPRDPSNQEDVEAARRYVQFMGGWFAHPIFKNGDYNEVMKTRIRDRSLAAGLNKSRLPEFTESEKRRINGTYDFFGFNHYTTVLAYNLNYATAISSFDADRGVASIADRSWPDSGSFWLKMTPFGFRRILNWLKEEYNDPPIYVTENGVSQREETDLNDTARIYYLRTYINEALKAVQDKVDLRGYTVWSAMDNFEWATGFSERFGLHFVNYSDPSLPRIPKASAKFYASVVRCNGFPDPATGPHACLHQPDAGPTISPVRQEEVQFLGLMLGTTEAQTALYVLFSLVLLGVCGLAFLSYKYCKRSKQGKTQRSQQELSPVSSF

Consider `O=C(O)/C=C/c1ccc(O)c(O)c1` [caffeic acid], for which the “SGLT1 inhibitory activity (in words)” value in series [1] is listed as “no inhibitory activity”. Moreover, the “GLUT2 inhibition (in words)” value in series [2] is listed as “no inhibitory activity”.
The inhibition is the percentage by which the read-out fell short of the control. Consider `COc1cc(-c2[o+]c3cc(O)cc(O)c3cc2O)cc(OC)c1O` [Malvidin], for which the “% Glucose Transport inhibition 5 mM” value in series [1] came out at 14.21%. Moreover, the inhibition at 25000 µM in series [2] is 4.99%.
`O=c1c(-c2ccc(O)cc2)coc2cc(O[C@@H]3O[C@H](CO)[C@@H](O)[C@H](O)[C@H]3O)ccc12` [Daidzein-7-glucoside]: in series [1], the “% Glucose Transport inhibition 5 mM” value is reported as 35.03%, the “SGLT1 inhibitory activity (in words)” value is reported as “inhibition of SGLT1” and the “Class (assigned class of transporter inhibited)” value is “SGLT1”. Also, the “% Glucose Transport inhibition 25 mM” value in series [2] worked out at 7.23%.
Turning to `OC[C@H]1O[C@@H](Oc2cc3c(O)cc(O)cc3[o+]c2-c2ccc(O)cc2)[C@H](O)[C@@H](O)[C@@H]1O` [Pelargonidin-3-glucoside], in series [3] (listed as P3G), the “Resistance to hydrolysis - % Q4G” value was found to be 58.94%.
Regarding `O=C1CC(c2ccc(O)cc2)Oc2cc(O[C@@H]3O[C@H](CO)[C@@H](O)[C@H](O)[C@H]3O)cc(O)c21` (stereo partly drawn) [Naringenin-7-O-glucoside], in series [3] (listed as N7G), the “Resistance to hydrolysis - % Q4G” value was 49.5% and 49.52%. In addition, the “% Glucose Transport inhibition 25 mM” value in series [2] turned out to be 0.06%.
Consider `O=c1c(O)c(-c2ccc(O)cc2)oc2cc(O[C@@H]3O[C@H](CO)[C@@H](O)[C@H](O)[C@H]3O)cc(O)c12` [Kaempferol 7-O-glucoside], for which, in series [1], the “% Glucose Transport inhibition 5 mM” value amounted to 43.89%, the “SGLT1 inhibitory activity (in words)” value is on record as “inhibition of SGLT1” and the “Class (assigned class of transporter inhibited)” value was “SGLT1”. Also, the μM substrate hydrolysed/hr in series [3] is on record as 0.618 μM substrate hydrolysed/hr. Besides, the “Resistance to hydrolysis - % Q4G” value in series [3] (listed as K7G) worked out at 80.05%. The “% Glucose Transport inhibition 25 mM” value in series [2] is 14.42%.
For `O=C1C[C@@H](c2ccc(O)c(O)c2)Oc2cc(O[C@@H]3O[C@H](CO)[C@@H](O)[C@H](O)[C@H]3O)cc(O)c21` [Eriodictyol-7-O-glucoside], in series [2], the “% Glucose Transport inhibition 25 mM” value is reported as 4.98%.
Consider `O=c1c(-c2ccc(O)cc2)coc2c([C@@H]3O[C@H](CO)[C@@H](O)[C@H](O)[C@H]3O)c(O)ccc12` [Daidzein-8-C-glucoside], for which the “Resistance to hydrolysis - % Q4G” value in series [3] (listed as D8G) was determined as 82.19%.
As to `O=c1c(O[C@@H]2O[C@H](CO)[C@@H](O)[C@H](O)[C@H]2O)c(-c2ccc(O)cc2)oc2cc(O)cc(O)c12` [Kaempferol 3-O-glucoside], the “Resistance to hydrolysis - % Q4G” value in series [3] (listed as K3G) was 92.8% and 92.78%.
`O=C(CCc1ccc(O)cc1)c1c(O)cc(O)cc1O[C@@H]1O[C@H](CO)[C@@H](O)[C@H](O)[C@H]1O` [Phloridzin, reference compound]: in series [4], the “total Cumulative Glucose Transport (tCGT), active added later with high D-glucose” value is “no inhibition”. In series [3], the μM substrate hydrolysed/hr is listed as 0.507 μM substrate hydrolysed/hr and the “Resistance to hydrolysis - % Q4G” value is listed as “at least 20%”. The “Resistance to hydrolysis - % Q4G” value in series [3] (listed as PLZ) came out at 83.64%. The inhibition at 25000 µM in series [2] was found to be 18.4%.
Regarding `O=c1cc(-c2ccc(O)cc2)oc2cc(OC3O[C@H](CO)[C@@H](O)[C@H](O)[C@H]3O)cc(O)c12` (stereo partly drawn) [Apigenin-7-glucoside], the “% Glucose Transport inhibition 25 mM” value in series [2] stood at 12.81%.
On to `OC[C@H]1O[C@@H](Oc2ccc(O)cc2)[C@H](O)[C@@H](O)[C@@H]1O` [arbutin], for which the “SGLT1 inhibitory activity (in words)” value in series [1] is on record as “lack of SGLT1 inhibitory activity”.
Take `O=c1cc(-c2ccc(O)c(O)c2)oc2cc(O[C@@H]3O[C@H](CO)[C@@H](O)[C@H](O)[C@H]3O)cc(O)c12` [Luteolin-7-glucoside]: in series [1], the “% Glucose Transport inhibition 5 mM” value worked out at 44.09%, the “SGLT1 inhibitory activity (in words)” value is “inhibition of SGLT1” and the “Class (assigned class of transporter inhibited)” value is given as “SGLT1”. The μM substrate hydrolysed/hr in series [3] is recorded as 0.814 μM substrate hydrolysed/hr. In series [3] (listed as L7G), the “Resistance to hydrolysis - % Q4G” value was 73.72%. In addition, the “% Glucose Transport inhibition 25 mM” value in series [2] stood at 17.03%.
Take `Oc1cc(O)c2cc(O)c(-c3cc(O)c(O)c(O)c3)[o+]c2c1` [Delphinindin]: the “Class (assigned class of transporter inhibited)” value in series [1] is listed as “None”. In addition, in series [2], the “% Glucose Transport inhibition 25 mM” value is on record as 15.86%.
In the case of `O=c1cc(-c2ccc(O)cc2)oc2c([C@@H]3O[C@H](CO)[C@@H](O)[C@H](O)[C@H]3O)c(O)cc(O)c12` [Apigenin-8-C-glucoside], in series [1], the “% Glucose Transport inhibition 5 mM” value is on record as 33.84%, the “SGLT1 inhibitory activity (in words)” value is given as “inhibition of SGLT1” and the “Class (assigned class of transporter inhibited)” value was “SGLT1”. Besides, in series [3], the μM substrate hydrolysed/hr is 0.685 μM substrate hydrolysed/hr. Also, the “Resistance to hydrolysis - % Q4G” value in series [3] (listed as A8G) worked out at 77.90%. In addition, in series [2], the “% Glucose Transport inhibition 25 mM” value turned out to be 5.76%.
Consider `O=C(/C=C/c1ccc(O)c(O)c1)O[C@H](Cc1ccc(O)c(O)c1)C(=O)O` [rosmarinic acid], for which the “SGLT1 inhibitory activity (in words)” value in series [1] was “no inhibitory activity”. Also, in series [2], the “GLUT2 inhibition (in words)” value is “no inhibitory activity”.
In the case of `Oc1cc(O)c2cc(O)c(-c3ccc(O)c(O)c3)[o+]c2c1` [Cyanidin], the “% Glucose Transport inhibition 5 mM” value in series [1] stood at 7.93%.
`O=C(/C=C/c1ccc(O)c(O)c1)O[C@@H]1C[C@](O)(C(=O)O)C[C@@H](O)[C@H]1O` [chlorogenic acid]: the “SGLT1 inhibitory activity (in words)” value in series [1] is “no inhibitory activity”. In series [2], the “GLUT2 inhibition (in words)” value is “no inhibitory activity”.
As to `Oc1cc(O)cc(/C=C/c2ccc(O)c(O)c2)c1` [Piceatannol], in series [1], the “% Glucose Transport inhibition 5 mM” value worked out at 89.28% and the “Class (assigned class of transporter inhibited)” value is “GLUT2 (GLUT2 having >20% inhibition at both 5 mM & 25 mM)”. Further, the inhibition at 25000 µM in series [2] amounted to 32.7%.
With `Oc1ccc(C=Cc2cc(O)cc(O)c2)cc1` [Resveratrol], in series [1], the “% Glucose Transport inhibition 5 mM” value amounted to 76.07% and the “Class (assigned class of transporter inhibited)” value is given as “GLUT2 (GLUT2 having >20% inhibition at both 5 mM & 25 mM)”. The “total Cumulative Glucose Transport (tCGT), active added later with high D-glucose” value in series [4] is listed as “significant reduction”. Also, in series [2], the inhibition at 25000 µM is 59% and the “GLUT2 inhibition (in words)” value was “GLUT2 inhibitors”.
With `Oc1ccc(-c2[o+]c3cc(O)cc(O)c3cc2O)cc1` [Pelargonidin], the “% Glucose Transport inhibition 5 mM” value in series [1] was determined as 4.07%. Besides, in series [2], the inhibition at 25000 µM stood at 16.5%.
Turning to `COc1cc(-c2[o+]c3cc(O)cc(O)c3cc2O[C@@H]2O[C@H](CO)[C@H](O)[C@H](O)[C@H]2O)cc(OC)c1O` [Malvidin 3-O-Galactoside], the “% Glucose Transport inhibition 25 mM” value in series [2] was 10.41%.
`COc1cc(-c2[o+]c3cc(O)cc(O)c3cc2O[C@@H]2O[C@H](CO)[C@@H](O)[C@H](O)[C@H]2O)cc(OC)c1O` [Malvidin-3-O-glucoside]: in series [2], the “% Glucose Transport inhibition 25 mM” value came to 10.91%.
Consider `COc1cc(/C=C/c2ccc(O)cc2)cc(OC)c1` [Pterostilbene], for which, in series [1], the “% Glucose Transport inhibition 5 mM” value is listed as 18.44%. In addition, in series [2], the inhibition at 25000 µM stood at 8.26%.
